The record followed here is patent US10206986B2, “Annexin II variant compositions and methods” (REGENTS OF THE UNIVERSITY OF MINNESOTA, priority 2013, dated 2019).

For one test, the target named is T1, hTLR2 (Homo sapiens, UniProt O60603).
T1 construct: host or cells: HEK 293 Blue Cells
Description: TLR2-transfected HEK 293 Blue cells, secreted alkaline phosphatase (NF-κB activity). Type of test: cell-based. The following applies: 48 hours, FIGS. 3, 6, 7. The source says:
(§1) To test if the 35 amino acid N-terminus of annexin II, which distinguishes annexin II from other annexins, contains adjuvant activity, we pulsed bone marrow-derived dendritic cells (BMDC) with gp100+/−A2OVA, fusion peptide containing this 35 amino acid fragment. […] We then tested whether this fusion peptide enhanced adjuvant activity over that of addition of OVA and full length annexin II protein. BMDC were pulsed with A2OVA and we measured the OVA-specific OT-1 CD8 T cell response. […] To further investigate the ability to derive a novel single antigen fusion peptide, we constructed OVA fusion peptides in which an OVA peptide (SEQ ID NO:9) was fused to either an annexin II N-terminal fragment or a scrambled 35 amino acid peptide to produce SEQ ID NO:30 and SEQ ID NO:29, respectively. Peptides were pulsed on TLR2 transfected cells and alkaline phosphatase activity was used to determine NF-κB activity (FIG. 3).
HEK 293 Blue Cells (Invivogen, San Diego, Calif.) stably transfected with hTLR2 were pulsed with annexin II-OVA fusion protein (A2OVA, SEQ ID NO:32) at equal concentration as annexin II monomer (A2 Peptide, SEQ ID NO:28). Scrambled annexin II N-terminus polypeptide (SEQ ID NO:29, Scrambled) and an annexin II fragment (SEQ ID NO:30, Minus p11) were used as controls. Cells were incubated for 48 hours. Following incubation, supernatant was added to Quanti-Blue (Invivogen, San Diego, Calif.) for secreted alkaline phosphatase detection.
(§2) TLR2-transfected HEK 293 Blue Cells and TLR4-transfected HEK 293 Blue Cells (Invivogen, San Diego, Calif.) were pulsed with the N-terminal 15 amino acid annexin II fragment peptide (15aa Peptide, SEQ ID NO:5) at different concentrations. Cells were incubated for 48 hours. Following incubation, supernatant was added to Quanti-Blue (Invivogen, San Diego, Calif.) for secreted alkaline phosphatase detection.
TLR2-transfected HEK 293 Blue Cells and TLR4-transfected HEK 293 Blue Cells (Invivogen, San Diego, Calif.) were pulsed with the N-terminal 15 amino acid annexin II fragment peptide (15aa Peptide, SEQ ID NO:5) or one of the annexin II variants shown in Table 1. Cells were incubated for 48 hours. Following incubation, supernatant was added to Quanti-Blue (Invivogen, San Diego, Calif.) for secreted alkaline phosphatase detection.

A further test deals with breast tumor. Description: Breast-tumor-bearing mice vaccinated intraperitoneally, tumor growth and survival. The following applies: 10 consecutive days intraperitoneally; for survival of tumor bearing mice: breast tumor bearing BALB/c mice, compared to saline or scrambled control, FIG. 5. Type of test: in vivo, BALB/c mice. As for the experimental part: (§3) Next, we investigated the use of the A2OVA in vivo. A2OVA peptide (SEQ ID NO:32) was given to non-tumor bearing mice as described in FIG. 4A to see if they would elicit an OVA specific T cell response. […] To determine if the 35 amino acid annexin II fragment can extend survival in tumor bearing animals in an antigen non-specific manner, we used breast tumor bearing BALB/c mice, which lack the MHC haplotype to present SIINFEKL. Mice were treated with A2OVA peptide as summarized in FIG. 5A and followed for survival.

Test [1] has as its system bone marrow derived dendritic cells. As to the kind of experiment: BMDCs (wild-type, TLR2-/-, TLR4-/-, MyD88-/-) pulsed with peptide, CD80/CD86 by flow cytometry. The test is classed as cell-based, mice. The following applies: 50 μg peptide, 48 hours, TLR2, TLR4 and MyD88 knockout BMDCs, CD11c+MHCII+ gate; for CD80 co-stimulatory molecule expression (MFI): FIG. 11; for CD86 co-stimulatory molecule expression (MFI): FIG. 12. The protocol:
To further characterize the activity of the A-6 variant (SEQ ID NO:17), BMDCs from wild-type, TLR2 knockout, TLR4 knockout, and MyD88 knockout mice were pulsed with the peptide and analyzed for co-stimulatory molecules CD80 (FIG. 11) and CD86 (FIG. 12).
BDMCs (wild-type, TLR2^−/−, TLR4^−/−, and MyD88^−/−) were cultured with 20 ng/mL GM-CSF for six days, then pulsed with 50 ng Pam3CSK4, 50 ng LPS, 50 μg of the N-terminal 15 amino acid annexin II fragment peptide (SEQ ID NO:5, 15aa A2p), or 50 μg of annexin II variant A-6 (SEQ ID NO:17, 15aa A2p6 AL). After 48 hours, cells were stained for CD11c, MHC II, CD80, and CD86 and analyzed by flow cytometry. MFI shown is from a live cell, CD11c^+MHCII^+ gate.

For test [2], the system named is OVA specific CD8+ T cell response. As to the kind of experiment: Vaccination of BL/6 mice, CD8+SIINFEKL+ expansion in whole blood on Day 8. Type of test: in vivo. The following applies: four consecutive days, hind leg. The protocol:
as §3
BL/6 mice also were vaccinated for four consecutive days in the hind leg with ovalbumin (OVA), ovalbumin+ and 50 μg of the N-terminal 15 amino acid annexin II fragment peptide (SEQ ID NO:5, 15aa), or ovalbumin+50 μg the annexin II variant A-6 (Table 1, SEQ ID NO:17, 15aaP6). On Day 8, mice were bled and whole blood was analyzed for CD8^+SIINFEKL^+ expansion.

Another test addresses T2, TLR4 (Homo sapiens, UniProt O00206).
T2 construct: host or cells: HEK 293 Blue Cells
Description: TLR4-transfected HEK 293 Blue cells, secreted alkaline phosphatase (NF-κB activity). Type of test: cell-based. The following applies: 48 hours, FIGS. 6, 7.
Text: To better characterize the 35 amino acid N-terminus as an adjuvant, we serially removed five amino acids from the C-terminus end of the N-terminal fragment to produce annexin II variants SEQ ID NO:2, SEQ ID NO:3, SEQ ID NO:4, SEQ ID NO:5, and SEQ ID NO:6. We tested the resulting peptides for NF-κB activity. […] To test the ability of the 15 amino acid annexin II fragment (SEQ ID NO:5) to stimulate an immune response, and to determine whether its ability to do so is mediated through TLR2, wild-type and TLR-2 knockout mice were given OVA±annexin II or OVA±the 15 amino acid N-terminal annexin II fragment (SEQ ID NO:5).
as §2
TLR2-transfected HEK 293 Blue Cells and TLR4-transfected HEK 293 Blue Cells (Invivogen, San Diego, Calif.) were pulsed with the N-terminal 15 amino acid annexin II fragment peptide (15aa Peptide, SEQ ID NO:5) or one of the annexin II variants shown in Table 1. Cells were incubated for 48 hours. […]

Test [3] deals with bone marrow derived dendritic cells. As to the kind of experiment: BMDCs (wild-type, TLR4-/-, MyD88-/-) pulsed with peptide, TNF in supernatant by bead array. The test is classed as cell-based, mice. The following applies: 50 μg peptide, 48 hours, TLR4 knockout and MyD88 knockout BMDCs, FIG. 10. The protocol:
To determine the 15 amino acid N-terminal annexin II fragment's activity on dendritic cells, BMDCs were derived for wild-type, TLR4 knockout, and MyD88 knockout mice. The various BMDCs and pulsed with the 15 amino acid N-terminal annexin II fragment (SEQ ID NO:5).
BMDCs (wild-type, TLR4^−/−, and MyD88^−/−) were cultured with 20 ng/mL GM-CSF for six days, then pulsed with 50 ng Pam3CSK4, 50 ng LPS, or 50 μg of the N-terminal 15 amino acid annexin II fragment peptide (SEQ ID NO:5, A2-15aa). After 48 hours, cell culture supernatant was assayed for TNF by bead array.

The test system of test [4] is OVA-specific OT-1 CD8 T cell response. As to the kind of experiment: BMDCs pulsed with OVA peptide/fusion, co-cultured with OT-I CD8+ T cells, IFN-γ by bead array. The following applies: BMDC pulsed with A2OVA versus A2 monomer + OVA as separate agents; FIG. 2. Type of test: cell-based, mice.
Text: as §1
BMDCs were pulsed with OVA248-274 (SEQ ID NO:31), annexin II (A2 monomer, SEQ ID NO:28), a combination of OVA248-274 and annexin II (A2 monomer+OVA), or annexin II-OVA fusion protein (A2OVA, SEQ ID NO:32), and incubated for 24 hours. Purified OT-I CD8^+ T cells were added and co-cultured for an additional 48 hours. IFN-γ in the tissue culture supernatant was quantified by bead array.

The test system of test [5] is gp100-specific CD8 T cell response. As to the kind of experiment: BMDCs pulsed with hgp100 25-33 plus peptide, co-cultured with Pmel CD8+ T cells, IFN-γ by bead array. The following applies: BMDC pulsed with gp100 +/- A2OVA; equal concentration and equal molecular ratio compared to full-length annexin II; FIG. 1. Type of test: cell-based, C57BL/6 mice.
Text: as §1
Bone marrow derived dendritic cells (BMDCs) were differentiated from C57BL/6 mice and pulsed with hgp10025-33 (SEQ ID NO: 27) with annexin II-OVA fusion protein (SEQ ID NO:32) at equal concentration (*) or equal molecular ratio (**) as A2 monomer (SEQ ID NO:28) and incubated for 24 hours. Annexin A2 monomer was used as a positive control. […] IFN-γ in the tissue culture supernatant was quantified by bead array.

T1 sequence (O60603 21-784): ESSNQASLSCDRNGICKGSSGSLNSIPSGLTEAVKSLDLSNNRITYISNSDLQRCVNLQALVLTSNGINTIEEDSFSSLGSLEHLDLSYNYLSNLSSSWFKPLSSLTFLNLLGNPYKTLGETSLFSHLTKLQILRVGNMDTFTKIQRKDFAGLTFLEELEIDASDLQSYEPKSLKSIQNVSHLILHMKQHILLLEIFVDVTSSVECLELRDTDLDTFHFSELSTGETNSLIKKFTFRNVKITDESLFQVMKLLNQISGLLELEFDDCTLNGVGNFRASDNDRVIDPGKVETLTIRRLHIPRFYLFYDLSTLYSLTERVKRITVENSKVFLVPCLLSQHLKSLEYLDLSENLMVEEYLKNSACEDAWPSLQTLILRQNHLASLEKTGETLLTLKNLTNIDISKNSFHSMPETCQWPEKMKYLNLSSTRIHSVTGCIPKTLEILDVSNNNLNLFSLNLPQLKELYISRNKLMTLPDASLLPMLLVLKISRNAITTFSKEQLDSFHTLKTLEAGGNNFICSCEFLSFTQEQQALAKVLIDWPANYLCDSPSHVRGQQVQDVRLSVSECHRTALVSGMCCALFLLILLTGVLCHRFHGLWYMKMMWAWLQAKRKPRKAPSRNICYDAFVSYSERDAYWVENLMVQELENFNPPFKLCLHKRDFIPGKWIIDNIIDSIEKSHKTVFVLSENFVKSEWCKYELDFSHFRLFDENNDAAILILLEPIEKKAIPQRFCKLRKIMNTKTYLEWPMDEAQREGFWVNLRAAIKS
T2 sequence (O00206 24-839, species assumed): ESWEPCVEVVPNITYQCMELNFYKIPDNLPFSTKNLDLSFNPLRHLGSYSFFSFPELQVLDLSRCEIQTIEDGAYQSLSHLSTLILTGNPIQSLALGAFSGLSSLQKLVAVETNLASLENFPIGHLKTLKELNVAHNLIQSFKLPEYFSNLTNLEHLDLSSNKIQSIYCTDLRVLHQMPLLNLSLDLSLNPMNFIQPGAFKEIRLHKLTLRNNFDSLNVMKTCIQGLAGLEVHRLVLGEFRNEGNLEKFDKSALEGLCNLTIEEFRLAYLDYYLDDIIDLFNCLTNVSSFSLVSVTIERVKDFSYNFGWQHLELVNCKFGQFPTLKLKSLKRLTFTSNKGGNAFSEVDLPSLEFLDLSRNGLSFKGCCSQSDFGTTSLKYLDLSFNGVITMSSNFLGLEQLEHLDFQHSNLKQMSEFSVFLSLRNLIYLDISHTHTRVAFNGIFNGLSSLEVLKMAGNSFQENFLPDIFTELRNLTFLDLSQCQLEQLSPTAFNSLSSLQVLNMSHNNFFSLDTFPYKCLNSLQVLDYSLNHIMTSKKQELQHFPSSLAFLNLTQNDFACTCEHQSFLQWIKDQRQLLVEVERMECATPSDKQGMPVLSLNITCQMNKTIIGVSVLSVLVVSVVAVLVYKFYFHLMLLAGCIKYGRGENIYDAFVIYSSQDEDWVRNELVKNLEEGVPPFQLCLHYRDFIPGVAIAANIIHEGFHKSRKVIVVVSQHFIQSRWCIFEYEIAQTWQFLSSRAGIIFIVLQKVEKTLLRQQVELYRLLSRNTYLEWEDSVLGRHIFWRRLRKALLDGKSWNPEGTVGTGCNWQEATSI
T2 sequence (Q9Y6Y9 17-160 partner limits assumed, species assumed): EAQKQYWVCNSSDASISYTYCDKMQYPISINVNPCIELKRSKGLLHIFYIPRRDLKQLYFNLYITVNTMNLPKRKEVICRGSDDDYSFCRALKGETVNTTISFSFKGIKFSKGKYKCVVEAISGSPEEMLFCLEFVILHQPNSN

“DHSTPPSAYGSVKPYTNFDAEEQLESIINFEKLTEWT (DHSTPPSAYGSVKPYTNFDAEEQLESIINFEKLTEWT; annexin II peptide fragment minus p11) [SEQ ID NO:30, reference compound]”: the “NF-κB activity through TLR2 (alkaline phosphatase)” value (“NF-κB activity through TLR2” for short) with hTLR2 is “did not elicit a response”. In addition, in the test with breast tumor, the “survival of tumor bearing mice” value is “conferred no survival benefit”.

“STVHEALCKL SLEGD (STVHEALCKLSLEGD; annexin II variant polypeptide) [A-6, alanine for isoleucine substitution at position six of a 15 amino acid annexin II fragment]”: the “NF-κB activity through TLR2” value with hTLR2 was “enhanced TLR2 and TLR4 signaling”. In addition, in test [1], the “CD80 co-stimulatory molecule expression (MFI)” value was “increased CD80 and CD86 co-stimulatory molecule expression in a TLR4- and MyD88-dependent manner”; the “CD86 co-stimulatory molecule expression (MFI)” value is “increased CD80 and CD86 co-stimulatory molecule expression in a TLR4- and MyD88-dependent manner”. The “OVA specific T cell priming in vivo (CD8+SIINFEKL+ expansion)” value in test [2] (BL/6 mice, ovalbumin + 50 μg peptide, Day 8, versus 15aa fragment, FIG. 9) is given as “enhanced OVA specific T cell priming in vivo”. In addition, the “NF-κB activity through TLR4 (alkaline phosphatase)” value in the test with TLR4 was “enhanced TLR2 and TLR4 signaling”.

Consider “STVHEILCKL SLEGD (STVHEILCKLSLEGD; annexin II variant polypeptide) [SEQ ID NO:5, N-terminal 15 amino acid annexin II fragment peptide]”, for which the “NF-κB activity through TLR2” value with hTLR2 was “activated TLR2”. Besides, in test [1], the “CD80 co-stimulatory molecule expression (MFI)” value was “increased CD80 and CD86 co-stimulatory molecule expression in a TLR4- and MyD88-dependent manner”; the “CD86 co-stimulatory molecule expression (MFI)” value is “increased CD80 and CD86 co-stimulatory molecule expression in a TLR4- and MyD88-dependent manner”. The “TNF secretion from BMDCs” value in test [3] is “mediated induction of TNF secretion and that the activity is MyD88-dependent”.

“STVHEILCKLSLEGDHSTPPSAYGSVKPYTNFDAEEQLESIINFEKLTEWT (STVHEILCKLSLEGDHSTPPSAYGSVKPYTNFDAEEQLESIINFEKLTEWT; annexin II-OVA fusion protein (A2OVA) polypeptide) [fusion peptide of the 35 amino acid annexin II N-terminus and OVA peptide]”: the “NF-κB activity through TLR2” value in the test with hTLR2 is “stimulated NF-κB through TLR2”. The “survival of tumor bearing mice” value in the test on breast tumor is “enhanced survival compared to saline or scrambled control”. In addition, the tumor size result in the test with breast tumor (breast tumor bearing mice, FIG. 5B) was “reducing tumor size in vivo”. Besides, the “IFNγ response of OVA-specific OT-1 CD8 T cells” value in test [4] is reported as “induced an IFNγ response superior to that of A2 monomer (A2m)+OVA added as separate agents”. Also, in test [2] (non-tumor bearing BL/6 mice, Poly:ICLC and 50 μg peptide, Day 8, FIG. 4B), the “antigen specific CD8+ T cell response in vivo (CD8+SIINFEKL+ expansion)” value is recorded as “stimulated an antigen specific CD8^+ T cell response in vivo”. In test [5], the “adjuvant activity in gp100-specific CD8 T cell response (IFN-γ)” value is reported as “exerted adjuvant activity”.
